Data: ChEMBL document CHEMBL3885861, “Open TG-GATES”

Species on record: Rattus norvegicus
Assay: Open TG-GATES - Regimen: Single
Type: toxicity, organism-based, Sprague-Dawley
Design: regimen Single, gender Male, age 6 weeks
Conditions: in vivo, po, route gavage; for APTT / Bas / Eos / Fbg / Hb / Ht / Lym / MCH / MCHC / MCV / Mono / Neu / PT / Plat / RBC / Ret / WBC: tissue Blood; for KIDNEY_L / KIDNEY_R / KIDNEY_TOTAL: tissue Kidney; for LIVER: tissue Liver; for ALP / ALT / AST / BUN / CRE / Ca / Cl / DBIL / GLC / IP / K / LDH / Na / PL / RALB / TBIL / TC / TG / TP / gamma-GTP: tissue Plasma
[1] = 100 mg/kg, 3 h, dose level Middle
[2] = 100 mg/kg, 6 h, dose level Middle
[3] = 100 mg/kg, 9 h, dose level Middle
[4] = 100 mg/kg, 24 h, dose level Middle
[5] = 1000 mg/kg, 3 h, dose level High
[6] = 1000 mg/kg, 6 h, dose level High
[7] = 1000 mg/kg, 9 h, dose level High
[8] = 1000 mg/kg, 24 h, dose level High

## COc1cc([C@@H]2c3cc4c(cc3[C@@H](O[C@@H]3O[C@@H]5CO[C@@H](C)O[C@H]5[C@H](O)[C@H]3O)[C@H]3COC(=O)[C@H]23)OCO4)cc(OC)c1O [ETOPOSIDE]
[1]
  TERMINAL_BW: 196.5 g
  APTT: 17 s
  Bas: 0%
  Eos: 1%
  Fbg: 184.4 mg/dL
  Hb: 13.6 g/dL
  Ht: 40.5%
  Lym: 78.6%
  MCH: 21.7 pg
  MCHC: 33.7%
  MCV: 64.4 fL
  Mono: 8.2%
  Neu: 12.2%
  PT: 12.3 s
  Plat: 118 x10_4/uL
  RBC: 628.4 x10_4/ul
  Ret: 9.8%
  WBC: 104.2 x10_2/uL
  KIDNEY_L: 0.9 g
  KIDNEY_R: 0.9 g
  KIDNEY_TOTAL: 1.8 g
  LIVER: 9.1 g
  ALP: 1074.8 IU/L
  ALT: 36 IU/L
  AST: 69.4 IU/L
  BUN: 13.8 mg/dL
  CRE: 0.5 mg/dL
  Ca: 10.6 mg/dL
  Cl: 103.8 meq/L
  DBIL: 0.026 mg/dL
  GLC: 193 mg/dL
  IP: 9.6 mg/dL
  K: 4.3 meq/L
  LDH: 111 IU/L
  Na: 141.6 meq/L
  PL: 137.2 mg/dL
  RALB: 3.4 g/dL
  TBIL: 0.3 mg/dL
  TC: 78.6 mg/dL
  TG: 45.4 mg/dL
  TP: 5.2 g/dL
  gamma-GTP: 1.4 IU/L
[2]
  TERMINAL_BW: 198.5 g
  APTT: 17.4 s
  Bas: 0%
  Eos: 1%
  Fbg: 198 mg/dL
  Hb: 13.6 g/dL
  Ht: 40.5%
  Lym: 76.6%
  MCH: 21.9 pg
  MCHC: 33.7%
  MCV: 65.1 fL
  Mono: 9.8%
  Neu: 13%
  PT: 11.9 s
  Plat: 110.3 x10_4/uL
  RBC: 622 x10_4/ul
  Ret: 10%
  WBC: 69.6 x10_2/uL
  KIDNEY_L: 0.9 g
  KIDNEY_R: 0.9 g
  KIDNEY_TOTAL: 1.9 g
  LIVER: 8.9 g
  ALP: 933.8 IU/L
  ALT: 29.4 IU/L
  AST: 62.2 IU/L
  BUN: 11.4 mg/dL
  CRE: 0.6 mg/dL
  Ca: 10.7 mg/dL
  Cl: 105 meq/L
  DBIL: 0.02 mg/dL
  GLC: 196.2 mg/dL
  IP: 10.5 mg/dL
  K: 4.7 meq/L
  LDH: 98.4 IU/L
  Na: 141.6 meq/L
  PL: 137.8 mg/dL
  RALB: 3.3 g/dL
  TBIL: 0.4 mg/dL
  TC: 78 mg/dL
  TG: 40.2 mg/dL
  TP: 5.3 g/dL
  gamma-GTP: 0.8 IU/L
[3]
  TERMINAL_BW: 197 g
  APTT: 16.9 s
  Bas: 0%
  Eos: 1%
  Fbg: 206.8 mg/dL
  Hb: 13 g/dL
  Ht: 38.8%
  Lym: 77.8%
  MCH: 21.5 pg
  MCHC: 33.5%
  MCV: 64.3 fL
  Mono: 6.8%
  Neu: 14.6%
  PT: 11.2 s
  Plat: 109 x10_4/uL
  RBC: 604.2 x10_4/ul
  Ret: 8.2%
  WBC: 72.5 x10_2/uL
  KIDNEY_L: 0.9 g
  KIDNEY_R: 1 g
  KIDNEY_TOTAL: 1.9 g
  LIVER: 8.5 g
  ALP: 842.6 IU/L
  ALT: 33.4 IU/L
  AST: 63.6 IU/L
  BUN: 12.8 mg/dL
  CRE: 0.5 mg/dL
  Ca: 10.4 mg/dL
  Cl: 105.8 meq/L
  DBIL: 0.048 mg/dL
  GLC: 199 mg/dL
  IP: 10.6 mg/dL
  K: 4.6 meq/L
  LDH: 78.4 IU/L
  Na: 143.2 meq/L
  PL: 114 mg/dL
  RALB: 3.5 g/dL
  TBIL: 0.4 mg/dL
  TC: 67.6 mg/dL
  TG: 27.6 mg/dL
  TP: 5.4 g/dL
  gamma-GTP: 1.6 IU/L
[4]
  TERMINAL_BW: 207.9 g
  APTT: 16 s
  Bas: 0%
  Eos: 1%
  Fbg: 206 mg/dL
  Hb: 13.4 g/dL
  Ht: 39.8%
  Lym: 86.4%
  MCH: 21.4 pg
  MCHC: 33.7%
  MCV: 63.4 fL
  Mono: 4.8%
  Neu: 8%
  PT: 11.7 s
  Plat: 113.3 x10_4/uL
  RBC: 628.4 x10_4/ul
  Ret: 7.4%
  WBC: 74.6 x10_2/uL
  KIDNEY_L: 1 g
  KIDNEY_R: 1 g
  KIDNEY_TOTAL: 2 g
  LIVER: 9.3 g
  ALP: 999.2 IU/L
  ALT: 30.4 IU/L
  AST: 64.8 IU/L
  CRE: 0.5 mg/dL
  Ca: 10.9 mg/dL
  Cl: 104.8 meq/L
  DBIL: 0.028 mg/dL
  GLC: 192.4 mg/dL
  IP: 9.1 mg/dL
  K: 5 meq/L
  LDH: 94.6 IU/L
  Na: 140.6 meq/L
  PL: 134.4 mg/dL
  RALB: 3.6 g/dL
  TBIL: 0.3 mg/dL
  TC: 78.2 mg/dL
  TG: 60 mg/dL
  TP: 5.5 g/dL
  gamma-GTP: 1.2 IU/L
[5]
  TERMINAL_BW: 199.8 g
  APTT: 16.9 s
  Bas: 0%
  Eos: 1%
  Fbg: 194.6 mg/dL
  Hb: 13.4 g/dL
  Ht: 39.9%
  Lym: 75.2%
  MCH: 22.5 pg
  MCHC: 33.7%
  MCV: 66.6 fL
  Mono: 7.6%
  Neu: 16.2%
  PT: 12.1 s
  Plat: 113.8 x10_4/uL
  RBC: 599 x10_4/ul
  Ret: 9.6%
  WBC: 81.2 x10_2/uL
  KIDNEY_L: 0.9 g
  KIDNEY_R: 0.9 g
  KIDNEY_TOTAL: 1.8 g
  LIVER: 9.6 g
  ALP: 906.2 IU/L
  ALT: 35.8 IU/L
  AST: 68 IU/L
  BUN: 12.4 mg/dL
  CRE: 0.4 mg/dL
  Ca: 10.5 mg/dL
  Cl: 104 meq/L
  DBIL: 0.026 mg/dL
  GLC: 186.8 mg/dL
  IP: 9.8 mg/dL
  K: 4.5 meq/L
  LDH: 112.4 IU/L
  Na: 141 meq/L
  PL: 132 mg/dL
  RALB: 3.3 g/dL
  TBIL: 0.3 mg/dL
  TC: 71.2 mg/dL
  TG: 39.4 mg/dL
  TP: 5.2 g/dL
  gamma-GTP: 2 IU/L
[6]
  TERMINAL_BW: 200.5 g
  APTT: 16.7 s
  Bas: 0%
  Eos: 0.6%
  Fbg: 194.4 mg/dL
  Hb: 13.4 g/dL
  Ht: 39.7%
  Lym: 74.4%
  MCH: 22.1 pg
  MCHC: 33.8%
  MCV: 65.4 fL
  Mono: 10.6%
  Neu: 14.6%
  PT: 11.9 s
  Plat: 114.8 x10_4/uL
  RBC: 606.4 x10_4/ul
  Ret: 11.1%
  WBC: 76.4 x10_2/uL
  KIDNEY_L: 0.9 g
  KIDNEY_R: 0.9 g
  KIDNEY_TOTAL: 1.8 g
  LIVER: 8.9 g
  ALP: 782.6 IU/L
  ALT: 31.6 IU/L
  AST: 65.8 IU/L
  BUN: 11 mg/dL
  CRE: 0.6 mg/dL
  Ca: 10.4 mg/dL
  Cl: 104 meq/L
  DBIL: 0.006 mg/dL
  GLC: 193.6 mg/dL
  IP: 10.5 mg/dL
  K: 4.8 meq/L
  LDH: 105.4 IU/L
  Na: 140 meq/L
  PL: 140.2 mg/dL
  RALB: 3.3 g/dL
  TBIL: 0.3 mg/dL
  TC: 82.8 mg/dL
  TG: 39 mg/dL
  TP: 5.2 g/dL
  gamma-GTP: 1 IU/L
[7]
  TERMINAL_BW: 193.9 g
  APTT: 17.2 s
  Bas: 0%
  Eos: 0.6%
  Fbg: 201 mg/dL
  Hb: 13.8 g/dL
  Ht: 41.4%
  Lym: 86.4%
  MCH: 21.9 pg
  MCHC: 33.4%
  MCV: 65.7 fL
  Mono: 3.8%
  Neu: 9.2%
  PT: 11.3 s
  Plat: 117 x10_4/uL
  RBC: 630.4 x10_4/ul
  Ret: 8.4%
  WBC: 65.4 x10_2/uL
  KIDNEY_L: 0.9 g
  KIDNEY_R: 0.9 g
  KIDNEY_TOTAL: 1.8 g
  LIVER: 8.3 g
  ALP: 794 IU/L
  ALT: 29.4 IU/L
  AST: 63.4 IU/L
  BUN: 13.2 mg/dL
  CRE: 0.5 mg/dL
  Ca: 10.6 mg/dL
  Cl: 105.4 meq/L
  DBIL: 0.022 mg/dL
  GLC: 212.6 mg/dL
  IP: 10.1 mg/dL
  K: 4.7 meq/L
  LDH: 81.4 IU/L
  Na: 142.2 meq/L
  PL: 124.6 mg/dL
  RALB: 3.5 g/dL
  TBIL: 0.4 mg/dL
  TC: 67.6 mg/dL
  TG: 26.4 mg/dL
  TP: 5.4 g/dL
  gamma-GTP: 1.8 IU/L
[8]
  TERMINAL_BW: 205.7 g
  APTT: 16.4 s
  Bas: 0%
  Eos: 1%
  Fbg: 207 mg/dL
  Hb: 13.6 g/dL
  Ht: 40.4%
  Lym: 82.6%
  MCH: 21.5 pg
  MCHC: 33.6%
  MCV: 63.9 fL
  Mono: 9%
  Neu: 7.4%
  PT: 11.9 s
  Plat: 111.5 x10_4/uL
  RBC: 634 x10_4/ul
  Ret: 6.1%
  WBC: 56.3 x10_2/uL
  KIDNEY_L: 1 g
  KIDNEY_R: 1 g
  KIDNEY_TOTAL: 1.9 g
  LIVER: 8.8 g
  ALP: 979.6 IU/L
  ALT: 32 IU/L
  AST: 66.6 IU/L
  CRE: 0.5 mg/dL
  Ca: 10.9 mg/dL
  Cl: 104.8 meq/L
  DBIL: 0.01 mg/dL
  GLC: 182.8 mg/dL
  IP: 9.2 mg/dL
  K: 5 meq/L
  LDH: 103.4 IU/L
  Na: 140.2 meq/L
  PL: 136.6 mg/dL
  RALB: 3.5 g/dL
  TBIL: 0.3 mg/dL
  TC: 81 mg/dL
  TG: 47.6 mg/dL
  TP: 5.6 g/dL
  gamma-GTP: 1.6 IU/L
